From ChEMBL document CHEMBL4024706 (Eur J Med Chem, 2017)

Tests used:
[1] = target: Myosin light chain kinase (Homo sapiens) (UniProt Q32MK0); assay: Inhibition of wild-type human partial length MLCK (D488 to K800 residues) expressed in bacterial expression system assessed as residual activity at 1 uM by Kinomescan method relative to control
[2] = target: Serine/threonine-protein kinase WNK2 (Homo sapiens) (UniProt Q9Y3S1); assay: Inhibition of wild-type human partial length WNK2 (V47 to D482 residues) expressed in mammalian expression system assessed as residual activity at 1 uM by Kinomescan method relative to control
[3] = target: Rho-associated protein kinase 1 (Homo sapiens) (UniProt Q13464); assay: Inhibition of wild-type human partial length ROCK1 (M1 to R415 residues) expressed in mammalian expression system assessed as residual activity at 1 uM by Kinomescan method relative to control
[4] = target: Testis-specific serine/threonine-protein kinase 3 (Homo sapiens) (UniProt Q96PN8); assay: Inhibition of wild-type human full length TSSK3 (M1 to T268 residues) expressed in mammalian expression system assessed as residual activity at 1 uM by Kinomescan method relative to control
[5] = target: Bone morphogenetic protein receptor type-2 (Homo sapiens) (UniProt Q13873); assay: Inhibition of wild-type human partial length BMPR2 (R179 to Q526 residues) expressed in mammalian expression system assessed as residual activity at 1 uM by Kinomescan method relative to control
[6] = target: Cyclin-dependent kinase 5 (Homo sapiens) (UniProt Q00535); assay: Inhibition of wild-type human full length CDK5 (M1 to P292 residues) expressed in bacterial expression system assessed as residual activity at 1 uM by Kinomescan method relative to control
[7] = target: Death-associated protein kinase 1 (Homo sapiens) (UniProt P53355); assay: Inhibition of wild-type human partial length DAPK1 (M1 to F296 residues) expressed in bacterial expression system assessed as residual activity at 1 uM by Kinomescan method relative to control
[8] = target: Ribosomal protein S6 kinase alpha-2 (Homo sapiens) (UniProt Q15349); assay: Inhibition of wild-type human partial length C-terminal RSK3 kinase domain 2 (V403 to K700 residues) expressed in bacterial expression system assessed as residual activity at 1 uM by Kinomescan method relative to control
Ribosomal protein S6 kinase alpha-2 (Homo sapiens), sequence (Q15349 whole entry, the tested form may be a part): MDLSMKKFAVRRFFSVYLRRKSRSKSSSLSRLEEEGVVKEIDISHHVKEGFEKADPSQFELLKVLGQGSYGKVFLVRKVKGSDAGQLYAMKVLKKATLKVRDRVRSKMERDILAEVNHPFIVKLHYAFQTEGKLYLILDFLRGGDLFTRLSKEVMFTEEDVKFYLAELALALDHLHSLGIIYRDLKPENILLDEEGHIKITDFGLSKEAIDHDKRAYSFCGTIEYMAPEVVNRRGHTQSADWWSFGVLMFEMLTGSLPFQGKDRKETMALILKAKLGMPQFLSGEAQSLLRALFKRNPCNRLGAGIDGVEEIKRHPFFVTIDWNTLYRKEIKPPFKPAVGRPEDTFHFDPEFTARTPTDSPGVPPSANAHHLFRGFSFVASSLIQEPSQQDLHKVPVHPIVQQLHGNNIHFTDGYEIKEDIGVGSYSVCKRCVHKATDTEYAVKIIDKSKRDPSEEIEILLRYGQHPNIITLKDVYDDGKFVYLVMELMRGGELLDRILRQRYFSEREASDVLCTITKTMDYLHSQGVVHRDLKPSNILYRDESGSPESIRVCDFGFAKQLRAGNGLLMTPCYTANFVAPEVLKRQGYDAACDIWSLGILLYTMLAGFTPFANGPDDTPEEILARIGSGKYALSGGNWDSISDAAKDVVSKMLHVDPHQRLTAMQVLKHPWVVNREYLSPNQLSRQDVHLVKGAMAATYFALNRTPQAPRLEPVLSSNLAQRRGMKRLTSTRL

[9] = target: Cyclin-dependent kinase 18 (Homo sapiens) (UniProt Q07002); assay: Inhibition of wild-type human full length PCTK3 (M3 to F474 residues) expressed in bacterial expression system assessed as residual activity at 1 uM by Kinomescan method relative to control
Cyclin-dependent kinase 18 (Homo sapiens), sequence (Q07002 whole entry, the tested form may be a part): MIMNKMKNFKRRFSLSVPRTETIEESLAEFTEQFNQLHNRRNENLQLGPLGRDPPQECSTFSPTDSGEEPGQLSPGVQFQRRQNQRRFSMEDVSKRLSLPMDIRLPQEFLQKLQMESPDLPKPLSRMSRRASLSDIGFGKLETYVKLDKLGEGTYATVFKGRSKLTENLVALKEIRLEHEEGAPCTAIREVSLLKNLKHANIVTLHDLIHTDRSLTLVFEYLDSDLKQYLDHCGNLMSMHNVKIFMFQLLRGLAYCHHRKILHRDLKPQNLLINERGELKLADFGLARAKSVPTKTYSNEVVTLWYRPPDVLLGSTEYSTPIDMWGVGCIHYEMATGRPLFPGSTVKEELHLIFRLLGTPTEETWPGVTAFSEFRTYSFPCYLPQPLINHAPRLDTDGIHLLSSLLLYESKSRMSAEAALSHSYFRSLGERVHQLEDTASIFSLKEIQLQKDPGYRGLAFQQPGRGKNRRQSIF

[10] = target: Activin receptor type-1 (Homo sapiens) (UniProt Q04771); assay: Inhibition of wild-type human ACVR1 (C188 to C509 residues) expressed in bacterial expression system assessed as residual activity at 1 uM by Kinomescan method relative to control
Activin receptor type-1 (Homo sapiens), sequence (Q04771 whole entry, the tested form may be a part): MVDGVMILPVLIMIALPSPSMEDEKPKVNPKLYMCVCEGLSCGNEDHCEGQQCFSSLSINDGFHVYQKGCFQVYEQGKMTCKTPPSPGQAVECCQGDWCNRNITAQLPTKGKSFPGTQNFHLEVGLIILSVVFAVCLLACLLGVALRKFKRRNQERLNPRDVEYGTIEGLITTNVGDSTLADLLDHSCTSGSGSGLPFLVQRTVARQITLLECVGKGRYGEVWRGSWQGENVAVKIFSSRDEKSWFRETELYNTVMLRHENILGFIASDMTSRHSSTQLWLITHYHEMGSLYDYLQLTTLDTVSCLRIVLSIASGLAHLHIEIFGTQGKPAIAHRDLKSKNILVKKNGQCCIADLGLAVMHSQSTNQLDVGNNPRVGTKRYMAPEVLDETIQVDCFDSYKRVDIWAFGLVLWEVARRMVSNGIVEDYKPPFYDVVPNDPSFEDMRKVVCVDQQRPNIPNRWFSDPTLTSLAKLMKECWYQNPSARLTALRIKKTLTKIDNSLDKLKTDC

[11] = target: SRSF protein kinase 3 (Homo sapiens) (UniProt Q9UPE1); assay: Inhibition of wild-type human partial length SRPK3 (P41 to P567 residues) expressed in bacterial expression system assessed as residual activity at 1 uM by Kinomescan method relative to control
[12] = target: SRSF protein kinase 2 (Homo sapiens) (UniProt P78362); assay: Inhibition of wild-type human full length SRPK2 (M1 to S686 residues) expressed in bacterial expression system assessed as residual activity at 1 uM by Kinomescan method relative to control
[13] = target: Hepatocyte growth factor receptor (Homo sapiens) (UniProt P08581); assay: Inhibition of wild-type human partial length MET (D1010 to S1367 residues) expressed in bacterial expression system assessed as residual activity at 1 uM by Kinomescan method relative to control
[14] = target: Serine/threonine-protein kinase TNNI3K (Homo sapiens) (UniProt Q59H18); assay: Inhibition of wild-type human full length TNNI3K (M1 to S835 residues) expressed in bacterial expression system assessed as residual activity at 1 uM by Kinomescan method relative to control
[15] = tested on: Phosphatidylinositol 4,5-bisphosphate 3-kinase catalytic subunit alpha isoform (Homo sapiens), P42336 [H1047Y]; assay: Inhibition of human partial length PIK3CA H1047Y mutant (R108 to N1068 residues) expressed in mammalian expression system assessed as residual activity at 1 uM by Kinomescan method relative to control
[16] = target: Calcium/calmodulin-dependent protein kinase type 1 (Homo sapiens) (UniProt Q14012); assay: Inhibition of wild-type human full length CAMK1 (M1 to L370 residues) expressed in bacterial expression system assessed as residual activity at 1 uM by Kinomescan method relative to control
Calcium/calmodulin-dependent protein kinase type 1 (Homo sapiens), sequence (Q14012 whole entry, looked up, the tested form may be a part): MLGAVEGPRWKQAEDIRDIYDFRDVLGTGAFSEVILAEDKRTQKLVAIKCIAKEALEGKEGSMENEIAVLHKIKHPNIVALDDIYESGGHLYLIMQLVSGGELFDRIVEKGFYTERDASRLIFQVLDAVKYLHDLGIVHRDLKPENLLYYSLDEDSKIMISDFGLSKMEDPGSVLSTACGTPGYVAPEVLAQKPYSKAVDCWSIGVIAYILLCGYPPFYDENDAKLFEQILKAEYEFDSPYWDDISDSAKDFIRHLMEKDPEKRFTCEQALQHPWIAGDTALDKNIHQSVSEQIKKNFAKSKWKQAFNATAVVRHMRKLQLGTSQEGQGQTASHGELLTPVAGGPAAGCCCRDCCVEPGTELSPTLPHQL

[17] = target: Receptor-type tyrosine-protein kinase FLT3 (Homo sapiens) (UniProt P36888); assay: Inhibition of wild-type human partial length autoinhibited FLT3 (H564 to Y969 residues) expressed in mammalian expression system assessed as residual activity at 1 uM by Kinomescan method relative to control
[18] = target: Serine/threonine-protein kinase SIK2 (Homo sapiens) (UniProt Q9H0K1); assay: Inhibition of wild-type human full length SIK2 (M1 to N926 residues) expressed in bacterial expression system assessed as residual activity at 1 uM by Kinomescan method relative to control
[19] = tested on: Fibroblast growth factor receptor 3 (Homo sapiens), P22607 [G697C]; assay: Inhibition of human partial length FGFR3 G697C mutant (R442 to S771 residues) expressed in bacterial expression system assessed as residual activity at 1 uM by Kinomescan method relative to control
Fibroblast growth factor receptor 3 (Homo sapiens), P22607 [G697C], sequence (P22607 whole entry G697C, the tested form may be a part): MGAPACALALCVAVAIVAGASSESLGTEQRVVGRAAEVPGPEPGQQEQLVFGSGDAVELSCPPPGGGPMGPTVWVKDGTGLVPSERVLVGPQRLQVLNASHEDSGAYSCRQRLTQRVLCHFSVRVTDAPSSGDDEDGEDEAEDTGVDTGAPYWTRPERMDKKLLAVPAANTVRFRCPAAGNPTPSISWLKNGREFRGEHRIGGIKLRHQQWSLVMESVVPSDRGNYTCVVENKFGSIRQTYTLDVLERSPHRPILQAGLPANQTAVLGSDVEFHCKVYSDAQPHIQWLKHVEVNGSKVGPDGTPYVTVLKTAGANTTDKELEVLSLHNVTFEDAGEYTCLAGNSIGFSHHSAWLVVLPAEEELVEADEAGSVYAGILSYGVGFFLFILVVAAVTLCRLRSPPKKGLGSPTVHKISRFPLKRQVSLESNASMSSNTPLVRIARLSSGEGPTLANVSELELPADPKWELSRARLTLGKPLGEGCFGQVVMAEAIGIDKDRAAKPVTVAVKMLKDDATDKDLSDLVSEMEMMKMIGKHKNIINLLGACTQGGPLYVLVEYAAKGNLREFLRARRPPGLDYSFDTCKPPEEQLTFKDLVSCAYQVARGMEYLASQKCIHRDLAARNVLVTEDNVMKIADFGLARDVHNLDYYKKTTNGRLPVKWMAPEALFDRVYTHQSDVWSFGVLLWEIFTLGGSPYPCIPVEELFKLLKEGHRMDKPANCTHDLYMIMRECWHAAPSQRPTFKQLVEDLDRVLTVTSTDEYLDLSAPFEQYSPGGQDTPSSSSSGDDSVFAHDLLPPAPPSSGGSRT

[20] = target: Serine/threonine-protein kinase PAK 1 (Homo sapiens) (UniProt Q13153); assay: Inhibition of wild-type human partial length PAK1 (S149 to H545 residues) expressed in bacterial expression system assessed as residual activity at 1 uM by Kinomescan method relative to control
Serine/threonine-protein kinase PAK 1 (Homo sapiens), sequence (Q13153 whole entry, the tested form may be a part): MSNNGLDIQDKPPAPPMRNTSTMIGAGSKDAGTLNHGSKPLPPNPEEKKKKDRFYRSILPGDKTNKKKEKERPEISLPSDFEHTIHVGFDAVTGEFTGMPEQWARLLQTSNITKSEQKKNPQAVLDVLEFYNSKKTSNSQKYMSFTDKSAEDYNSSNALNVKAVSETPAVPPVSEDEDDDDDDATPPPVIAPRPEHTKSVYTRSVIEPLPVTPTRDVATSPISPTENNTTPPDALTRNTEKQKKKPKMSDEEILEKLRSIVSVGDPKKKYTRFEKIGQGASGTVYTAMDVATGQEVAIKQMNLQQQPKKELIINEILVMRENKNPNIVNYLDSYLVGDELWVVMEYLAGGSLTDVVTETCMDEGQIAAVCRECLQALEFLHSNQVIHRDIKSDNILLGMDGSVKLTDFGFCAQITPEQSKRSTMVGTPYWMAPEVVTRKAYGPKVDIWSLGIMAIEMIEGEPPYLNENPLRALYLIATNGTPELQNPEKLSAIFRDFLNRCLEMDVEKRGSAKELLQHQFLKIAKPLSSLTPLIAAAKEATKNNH

[21] = target: Leukocyte tyrosine kinase receptor (Homo sapiens) (UniProt P29376); assay: Inhibition of wild-type human partial length LTK (P422 to S744 residues) expressed in bacterial expression system assessed as residual activity at 1 uM by Kinomescan method relative to control
[22] = target: Tyrosine-protein kinase Lck (Homo sapiens) (UniProt P06239); assay: Inhibition of wild-type human partial length LCK (R207 to P509 residues) expressed in bacterial expression system assessed as residual activity at 1 uM by Kinomescan method relative to control
[23] = target: Serine/threonine-protein kinase SIK1 (Homo sapiens) (UniProt P57059); assay: Inhibition of wild-type human partial length SIK (M1 to Y304 residues) expressed in bacterial expression system assessed as residual activity at 1 uM by Kinomescan method relative to control
Serine/threonine-protein kinase SIK1 (Homo sapiens), sequence (P57059 whole entry, the tested form may be a part): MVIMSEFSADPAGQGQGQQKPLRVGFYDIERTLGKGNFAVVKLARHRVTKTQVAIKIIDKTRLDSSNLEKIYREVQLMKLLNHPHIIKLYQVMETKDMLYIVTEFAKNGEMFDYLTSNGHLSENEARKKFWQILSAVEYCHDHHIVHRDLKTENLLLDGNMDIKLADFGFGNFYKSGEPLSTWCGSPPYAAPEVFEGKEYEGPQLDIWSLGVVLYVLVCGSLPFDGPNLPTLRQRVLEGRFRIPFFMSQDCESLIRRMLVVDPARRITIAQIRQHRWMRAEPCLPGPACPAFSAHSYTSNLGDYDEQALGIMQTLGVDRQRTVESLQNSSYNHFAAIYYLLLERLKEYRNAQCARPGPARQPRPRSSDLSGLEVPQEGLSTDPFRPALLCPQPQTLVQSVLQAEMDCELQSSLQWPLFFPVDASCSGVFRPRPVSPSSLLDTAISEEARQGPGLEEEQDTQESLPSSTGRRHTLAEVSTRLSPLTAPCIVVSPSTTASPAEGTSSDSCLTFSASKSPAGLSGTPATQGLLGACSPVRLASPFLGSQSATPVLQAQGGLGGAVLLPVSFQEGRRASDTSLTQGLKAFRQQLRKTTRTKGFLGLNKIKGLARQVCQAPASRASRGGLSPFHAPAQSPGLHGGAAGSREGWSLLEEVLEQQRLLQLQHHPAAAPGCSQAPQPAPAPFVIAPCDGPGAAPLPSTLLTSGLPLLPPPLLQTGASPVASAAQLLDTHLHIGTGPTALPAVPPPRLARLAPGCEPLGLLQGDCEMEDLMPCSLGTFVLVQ

[24] = target: Receptor-interacting serine/threonine-protein kinase 4 (Homo sapiens) (UniProt P57078); assay: Inhibition of wild-type human partial length RIPK4 (M1 to V303 residues) expressed in mammalian expression system assessed as residual activity at 1 uM by Kinomescan method relative to control
[25] = tested on: Mast/stem cell growth factor receptor Kit (Homo sapiens), P10721 [V559D]; assay: Inhibition of human partial length KIT V559D mutant (Y545 to D952 residues) expressed in bacterial expression system assessed as residual activity at 1 uM by Kinomescan method relative to control

Myosin light chain kinase (Homo sapiens), sequence (Q32MK0 whole entry, the tested form may be a part): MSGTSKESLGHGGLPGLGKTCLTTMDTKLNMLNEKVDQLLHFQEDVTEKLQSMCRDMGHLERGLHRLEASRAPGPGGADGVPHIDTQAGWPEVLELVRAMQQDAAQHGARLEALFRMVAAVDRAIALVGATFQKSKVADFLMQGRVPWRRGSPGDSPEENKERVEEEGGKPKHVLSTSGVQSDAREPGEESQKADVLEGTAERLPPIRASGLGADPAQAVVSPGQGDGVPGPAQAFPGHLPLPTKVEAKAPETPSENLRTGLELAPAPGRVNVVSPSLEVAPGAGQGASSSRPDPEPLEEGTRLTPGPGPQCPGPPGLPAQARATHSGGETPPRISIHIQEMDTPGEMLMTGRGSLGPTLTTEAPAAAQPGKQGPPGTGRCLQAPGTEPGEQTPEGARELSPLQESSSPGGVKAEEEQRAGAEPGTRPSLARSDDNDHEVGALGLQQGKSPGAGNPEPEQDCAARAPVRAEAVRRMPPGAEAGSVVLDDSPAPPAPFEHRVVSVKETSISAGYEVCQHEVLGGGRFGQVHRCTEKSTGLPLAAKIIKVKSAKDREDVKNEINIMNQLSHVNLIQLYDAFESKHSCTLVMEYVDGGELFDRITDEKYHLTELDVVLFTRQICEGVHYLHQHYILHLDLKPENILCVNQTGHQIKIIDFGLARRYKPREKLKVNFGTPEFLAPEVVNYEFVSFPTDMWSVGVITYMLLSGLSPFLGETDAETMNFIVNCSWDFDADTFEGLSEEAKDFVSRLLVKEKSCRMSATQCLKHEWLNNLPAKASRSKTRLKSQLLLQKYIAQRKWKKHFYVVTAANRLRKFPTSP

C=CC(=O)Nc1cc(Nc2cc(-c3cccc(NC(=O)c4ccc(C(C)(C)C)cc4)c3C)cn(C)c2=O)ccc1C(=O)N1CCOCC1
Activity [1]: 83% | Activity [2]: 99% | Activity [3]: 100% | Activity [4]: 100% | Activity [5]: 93% | Activity [6]: 90% | Activity [7]: 100% | Activity [8]: 83% | Activity [9]: 98% | Activity [10]: 97% | Activity [11]: 81% | Activity [12]: 94% | Activity [13]: 96% | Activity [14]: 37% | Activity [15]: 91% | Activity [16]: 92% | Activity [17]: 100% | Activity [18]: 87% | Activity [19]: 100% | Activity [20]: 90% | Activity [21]: 81% | Activity [22]: 97% | Activity [23]: 93% | Activity [24]: 94% | Activity [25]: 93%
